Measurements from ChEMBL document CHEMBL1136841, “Discovery of 2-(alpha-methylbenzylamino) pyrazines as potent Type II inhibitors of FMS” (Bioorg Med Chem Lett, 2009).

Legend:
Rattus norvegicus [1] = assay: Half life in rat at 5 mg/kg, iv; format: ADME, organism-based; set-up: dose 5 mg/kg, route intravenous; settings: in vivo
Rattus norvegicus [2] = assay: Apparent volume of distribution in rat at 5 mg/kg, iv; format: ADME, organism-based; set-up: dose 5 mg/kg, route intravenous; settings: in vivo

- t1/2 (Rattus norvegicus [1]): 5.9 h
- Vz (Rattus norvegicus [2]): 30.2 L/kg
Compound: Cc1cccc(C(=O)Nc2cccc([C@H](C)Nc3cncc(Cl)n3)c2)c1
